Data reported in patent publication US20210000889A1, “METHODS FOR PROGNOSING AND TREATING METABOLIC DISEASES” (INSERM (INSTITUT NATIONAL DE LA SANTÉ ET DE LA RECHERCHE …, priority 2018, published 2021).

Key:
[1] = system: WT mice on HFD; test: IAA supplementation in drinking water of WT mice on HFD; assay type: in vivo; conditions: IAA 2 mg/ml in drinking water, HFD 11 weeks, vs not supplemented, FIG. 3
Description: (a) feces IAA (indole acetic acid) (b) ITT, and quantification of M2-like macrophages (F4/80+CD11b+CD206+ in epiWAT) and CD45+ cells (n=5 per group) (c-d), in WT mice supplemented or not with IAA (diluted in drinking water, 2 mg/ml) and put on HFD during 11 weeks (n=9-10 per group Data are expressed as mean±sem. *P≤0.05, **p<0.001, ***p<0.0001.
For oral glucose tolerance test (OGTT), mice were fasted overnight prior to an oral administration of 1-5 g/kg glucose. Blood was sampled from the tail vein at 0, 5, 15, 30, 60, 90 and 120 min in order to assay glucose concentration (OneTouch Ultra glucometer, LifeScan Europe). At 0, 15, 30, 60 min tail vein blood was collected, plasma samples were stored at −20° C. until they were analyzed for insulin concentration (Crystal Chem Inc., Downers Grove, USA). Insulin tolerance test (ITT) was performed in mice food deprived for 5 h prior to an intraperitonial injection of 1 U/kg insulin. Blood was sampled from the tail vein at 0, 5, 15, 30, 60 and 90 min in order to assay glucose concentration. […]
The stromal vascular fraction (SVF) containing mononuclear cells and preadipocytes was extracted from adipose tissue. […] The SVF pellet was resuspended in 1 mL fluorescence-activated cell sorter (FACS) buffer. […] Samples were acquired using an Fortessa cytometer (Becton Dickinson) and analyzed with FlowJo (TreeStar) software programs.

[2] = system: ob/ob mice; test: 1MT treatment of ob/ob mice (drinking water); assay type: in vivo
Text: Male C57Bl/6 Ido-1−/− mice were bought from the Jackson Laboratory (Jax) and bred in our facility. At weaning, mice were separated according to the genotype. Male ob/ob mice were bought from Janvier Laboratory at 4 weeks of age. Mice were fed with either a normal chow diet (NCD) (A03, SAFE, France) or subjected to diet-induced obesity containing 60% FAT (E15742-347, SSNIFF, Germany). High fat diet (HFD) was started at 7 weeks of age and continued for 20 weeks or less with ad libitum access to water and food. For chimerism experiment, we subjected 10 weeks old C57BL/6 WT and C57BL/6 Ido-1−/− to medullar aplasia by 9.5 gray lethal total body irradiation. We repopulated the mice with an intravenous injection of bone marrow cells isolated from femurs and tibias of male C57BL/6 WT and C57BL/6 Ido-1−/−. After 4 weeks of recovery, mice were fed a HFD for 20 weeks. In some experiments, IDO inhibitor (L-1methyl tryptophan, 1MT) (Sigma) was used at 2 mg/mL diluted in drinking water. […]
For oral glucose tolerance test (OGTT), mice were fasted overnight prior to an oral administration of 1-5 g/kg glucose. […] At 0, 15, 30, 60 min tail vein blood was collected, plasma samples were stored at −20° C. until they were analyzed for insulin concentration (Crystal Chem Inc., Downers Grove, USA). […]
HPLC Quantifications Thawed stools from mice were extracted as previously described 12. L-tryptophan (Trp) and L-kynurenine (Kyn) were measured via HPLC using a coulometric electrode array (ESA Coultronics, ESA Laboratories, Chelsford, Mass., USA)13. Quantifications were performed by referencing calibration curves obtained with internal standards. Other compounds (IAA) were quantified via liquid chromatography coupled to mass spectrometry (LC-MS) by using a Waters ACQUITY ultraperformance liquid chromatography (UPLC) system equipped with a binary solvent delivery manager and sample manager (Waters Corporation, Milford, Mass., USA) and that was coupled to a tandem quadrupole-time-of-flight (Q-TOF) mass spectrometer equipped with an electrospray interface (Waters Corporation). […]

[3] = 1MT 2 mg/mL in drinking water, vs untreated, data not shown

Structure (SMILES) | adipose inflammation (M2-like macrophages and CD45+ cells in epiWAT) [1] | insulin resistance (ITT) [1] | body weight [2, 3] | insulin sensitivity [2, 3] | ratio of Kyn/Trp in the feces ([2]; 1MT-treated vs not treated, FIG. 1j)
O=C(O)Cc1c[nH]c2ccccc12 [IAA, indole-3-acetic acid] | decreases | decreases insulin resistance | – | – | –
Cn1cc(C[C@H](N)C(=O)O)c2ccccc21 [1MT, L-1methyl tryptophan] | – | – | no difference in body weight | improved insulin sensitivity | significant decrease
